In patent publication US20110081325A1, “NOVEL TREATMENT OF HEART DISEASES” (Axiogenesis AG, priority 2008, published 2011):

Key:
[1] = test system: in vitro differentiated cardiomyocytes; assay: Cardiotoxic effect of doxorubicin on in vitro differentiated cardiomyocytes; format: cell-based, mouse; details: according to Example 4 of WO2005/005621, FIG. 4
Procedure: (§1) FIGS. 1-4: Effect of different vinca alkaloids (FIGS. 1-3) and doxorubicin (FIG. 4) on the viability and rate of survival of in vitro differentiated cardiomyocytes. EBs were generated and cardiac cells were differentiated as described in Example 1. Photomicrographs were taken before treatment and 48 and 72 hours after treatment. Fluorescent areas representing cardiac cells were measured and calculated as described in Example 2 and 3. Cor.At refers to in vitro differentiated cardiomyocytes and MEF to Mouse Embryonic Fibroblasts.
Thereafter, Example 2, supra, is modified in that doxorubin (doxorubicinhydrochlorid) together with vinblastin, vincristin or vinorelbin is added at different concentrations and reversed dilution series to the cell culture.

[2] = test system: in vitro differentiated cardiomyocytes; assay: Survival of in vitro differentiated cardiomyocytes in embryoid bodies (GFP fluorescent area); format: cell-based, mouse; details: ES cell-derived cardiomyocytes, after 72 hours, fluorescent area compared with before treatment
Procedure: as §1
The generation of “embryoid bodies” (EBs) from high density cell suspensions and differentiation of cardiac cells was essentially performed as described in Example 1 of international application WO2005/005621, the disclosure content of which is hereby incorporated by reference in its entirety. Briefly, mouse embryonic stem cells (ES cells, clone D3, ATCC CRL 1934) were stably transfected with the paMHC-GFP vector containing the gene of the green fluorescent protein under control of the cardiac α-myosin heavy chain (α-MHC) promotor. To obtain this vector, a 5.5 kb fragment containing the promoter region of the mouse α-myosin heavy chain gene (Genbank 471441) was introduced into the polylinker of the pEGFP-1 vector (Clontech Laboratories). […]
To generate EBs, ES cells were cultured in suspension at a density of 2×10^6 cells/ml in a 6 cm petri dish (Greiner, Darmstadt, Germany) in 4 ml IMDM with 20% FCS (Invitrogen, Karlsruhe, Germany) at 37° C., 5% CO2, 95% humidity on a rocking table (GFL 3006, GFL, Braunschweig, Germany) at 50 rpm for 6 hours. […] On day 14, fluorescent areas representing cardiac cells were detected by fluorescence microscopy using a Zeiss Axiovert 200M with a 10x Achroplan objective, a HQ-filterset for GFP (AF Analysentechnik, Tubingen, Germany) and a Sensicam 12 bit cooled imaging system (PCO Imaging, Kelheim, Germany). […]

SMILES	cardiotoxic effect on cardiomyocytes [1]	survival of in vitro differentiated cardiomyocytes [2]
COc1cccc2c1C(=O)c1c(O)c3c(c(O)c1C2=O)C[C@@](O)(C(=O)CO)C[C@@H]3O[C@H]1C[C@H](N)[C@H](O)[C@H](C)O1 [doxorubicin]	cardiotoxic effect	
CC[C@]1(O)C[C@@H]2CN(CCc3c([nH]c4ccccc34)[C@@](C(=O)OC)(c3cc4c(cc3OC)N(C)[C@H]3[C@@](O)(C(=O)OC)[C@H](OC(C)=O)[C@]5(CC)C=CCN6CC[C@]43[C@@H]65)C2)C1 [vinblastin]		increase survival
CC[C@]1(O)C[C@H]2CN(CCc3c([nH]c4ccccc34)[C@@](C(=O)OC)(c3cc4c(cc3OC)N(C=O)[C@H]3[C@@](O)(C(=O)OC)[C@H](OC(C)=O)[C@]5(CC)C=CCN6CC[C@]43[C@@H]65)C2)C1 [vincristin]		increase survival
CCC1=C[C@@H]2CN(C1)Cc1c([nH]c3ccccc13)[C@@](C(=O)OC)(c1cc3c(cc1OC)N(C)[C@H]1[C@@](O)(C(=O)OC)[C@H](OC(C)=O)[C@]4(CC)C=CCN5CC[C@]31[C@@H]54)C2 [vinorelbin]		increase survival
